Assay results from patent US20240043859A1, “HERBICIDE-RESISTANT PROTEIN, AND GENE AND USE THEREOF” (QINGDAO KINGAGROOT CHEMICAL COMPOUND CO., LTD., priority 2020, published 2024).
“Also recorded” adds a separate entry of the source.

System: Arabidopsis thaliana
Experiment: Spray testing of T2 generation transgenic Arabidopsis thaliana
Type: in vivo
Conditions: 100 g/ha foliage spray, 10 days after spraying
Description: The T2 generation seedlings of four representative transformants, pQY2309, pQY2310, pQY2311 and pQY2313, were selected for further spray testing. Four lines were randomly selected from the T2 generation generated by transformation of each vector, and respectively foliage-sprayed with 2,4-D (100 g/ha), MCPA (100 g/ha) and 2,4-DB sodium (100 g/ha) when Arabidopsis thaliana seeds germinated, transplanted and the seedlings grew to 5-7 leaf. Non-transgenic wild-type Col-0 served as a negative control. The level of resistance was assessed 10 days after spraying.

For `O=C(O)COc1ccc(Cl)cc1Cl` [2,4-D, (2,4-dichlorophenoxy)acetic acid, reference compound], the “Effect of the herbicide spray on wild-type Col-0” value was “all or almost all non-transgenic wild-type Arabidopsis thaliana died; also recorded: all die”.
